From patent US12215093B2, “Bicyclic carboxamides and methods of use thereof” (Tempest Therapeutics, Inc., priority 2018, dated 2025) come the findings set out here.

The target of one test is T1, EP4 (Homo sapiens, UniProt P35408).
T1 construct: host or cells: stably transfected HEK293 cells co-expressing a promiscuous G protein and a clytin variant
Briefly: Functional calcium flux assay, EP4. The conditions noted are these: stably transfected HEK293 cells; PGE2 10 nM; read-out: EP4 Ca2+-flux assay IC50. It is filed as cell-based.

A further test deals with EP2 (Homo sapiens, UniProt P43116).
Chain of EP2 (P43116 whole entry): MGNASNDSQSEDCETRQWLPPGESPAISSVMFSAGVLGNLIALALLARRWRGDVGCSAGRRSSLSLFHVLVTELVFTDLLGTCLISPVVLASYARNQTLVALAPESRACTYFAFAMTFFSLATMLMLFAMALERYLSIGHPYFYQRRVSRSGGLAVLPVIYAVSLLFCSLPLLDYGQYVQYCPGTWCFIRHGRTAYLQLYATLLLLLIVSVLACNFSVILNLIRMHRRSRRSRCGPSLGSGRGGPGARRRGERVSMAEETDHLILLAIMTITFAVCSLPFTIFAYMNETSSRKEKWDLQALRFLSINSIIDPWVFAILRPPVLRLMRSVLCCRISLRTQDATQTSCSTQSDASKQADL

T1 sequence (P35408 whole entry): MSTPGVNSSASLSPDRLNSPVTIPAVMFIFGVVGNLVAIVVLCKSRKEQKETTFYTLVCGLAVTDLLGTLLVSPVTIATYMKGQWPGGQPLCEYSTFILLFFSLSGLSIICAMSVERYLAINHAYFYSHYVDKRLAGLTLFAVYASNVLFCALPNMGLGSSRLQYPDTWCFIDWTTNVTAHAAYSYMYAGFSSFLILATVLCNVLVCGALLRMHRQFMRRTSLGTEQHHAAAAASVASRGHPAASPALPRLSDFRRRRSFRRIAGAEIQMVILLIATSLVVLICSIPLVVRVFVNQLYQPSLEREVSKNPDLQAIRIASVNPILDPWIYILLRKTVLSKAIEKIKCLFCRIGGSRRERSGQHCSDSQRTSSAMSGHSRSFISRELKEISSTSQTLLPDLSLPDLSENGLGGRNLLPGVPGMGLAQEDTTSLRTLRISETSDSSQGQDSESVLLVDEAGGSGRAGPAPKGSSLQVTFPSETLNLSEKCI
Description for EP4: Each receptor subtype has an additional promiscuous G protein added in order to couple the aforementioned receptor to the calcium signaling pathway. The parental cell line used also expresses a novel variant of clytin, a calcium-activated photo-protein, to enable sensitive luminescent detection. Briefly, cells were plated at 50,000 cells-per-well in black, clear bottom 96-well plates. The plated cells were allowed to sit at room temperature for 30 min prior to transferring to a humidified, 37° C., 5% CO2 incubator for 18 to 24 h. Assay buffer (HBSS with 20 mM HEPES) and loading buffer (assay buffer plus 10 μM coelenterazine) were prepared on the day of the assay. Assays were performed by aspirating media from the assay plate and washing once with assay buffer, then replacing with loading buffer and allowing the cells to incubate for 1.5 h at room temperature. Compounds were prepared in assay buffer at a 3× final concentration in non-binding plates. Compounds were added to the cell plates and incubated for 30 min at room temperature. The prostanoid receptor ligand PGE2 was prepared at a 4× dilution ratio for a final concentration of 10 nM. Plates were run on a Flexstation™ using a 100 ms integration luminescence protocol for a total of 60 sec with ligand addition at 15 sec. Data were obtained from relative light units as measured by area under the curve.

Regarding `O=C(NC1CC2(C1)CC(C(=O)O)C2)c1ccc(Cl)c2cnn(Cc3ccc(N4CC5CC5(C(F)F)C4)c(F)c3)c12` (racemic) [Example 76, (Sa)-6-(4-chloro-1-(4-((racemic)-1-(difluoromethyl)-3-azabicyclo[3.1.0]hexan-3-yl)-3-fluorobenzy1)-1H-indazole-7-carboxamido)spiro[3.3]heptane-2-carboxylic acid], the IC50 at EP4 is less than 1 nM; against EP2 it was 56 nM.
Taken in the same sequence, the figures for `CC(c1ccc(N2C[C@H]3C[C@H]3C2)cc1)n1ncc2c(Cl)ccc(C(=O)NC3CC4(C3)CC(C(=O)O)C4)c21` (mixture of isomers) [Example 77, (Sa)-6-(1-((racemic)-1-(4-((1R,5S)-3-azabicyclo[3.1.0]hexan-3-yl)phenyl)ethyl)-4-chloro-1H-indazole-7-carboxamido)spiro[3.3]heptane-2-carboxylic acid] were less than 1 nM and 71 nM.
Take `COc1cccc(-c2ccc(C(C)n3ncc4cccc(C(=O)NC5CC6(C5)CC(C(=O)O)C6)c43)cc2)c1` (racemic) [Example 113, (Sa)-6-(1-((racemic)-1-(3′-methoxy-[1,1′-bipheny]-4-yl)-ethyl)-1H-indazole-7-carboxamido)spiro[3.3]heptane-2-carboxylic acid]: the IC50 at EP4 is 1.3 nM; at EP2, less than 25 nM.
Taken in the same sequence, the figures for `COc1cc(C#N)cc(-c2ccc(C(C)n3ncc4cccc(C(=O)NC5CC6(C5)CC(C(=O)O)C6)c43)cc2)c1` (racemic) [Example 114, (Sa)-6-(1-((racemic)-1-(3′-cyano-5′-methoxy-[1,1′-biphenyl]-4-yl)-ethyl)-1H-indazole-7-carboxamido)spiro[3.3]heptane-2-carboxylic acid] were 5.5 nM and 57 nM.
Taken in the same sequence, the figures for `CCOc1cc(-c2ccc(C(C)n3ncc4cccc(C(=O)NC5CC6(C5)CC(C(=O)O)C6)c43)cc2)ccn1` (racemic) [Example 115, (Sa)-6-(1-((racemic)-1-(4-(2-ethoxypyridin-4-yl)phenyl)-ethyl)-1H-indazole-7-carboxamido)spiro[3.3]heptane-2-carboxylic acid] were 2.9 nM and 69 nM.
In the case of `CC(c1ccc(-c2ccccc2)cc1)n1ccc2c(F)ccc(C(=O)NC3CC4(C3)CC(C(=O)O)C4)c21` (racemic) [Example 116, (S)-6-(1-(racemic)-1-([1,1′-biphenyl]-4-yl)-ethyl)-4-fluoro-1H-indole-7-carboxamido)spiro[3.3]heptane-2-carboxylic acid], the IC50 at EP4 is 2.8 nM; at EP2, less than 25 nM.
Turning to `COc1cccc(-c2ccc(C(C)n3ccc4c(F)ccc(C(=O)NC5CC6(C5)CC(C(=O)O)C6)c43)cc2)c1` (racemic) [Example 117, (Sa)-6-(4-fluoro-1-((racemic)-1-(3′-methoxy-[1,1′-biphenyl]-4-yl)-ethyl)-1H-indole-7-carboxamido)spiro[3.3]heptane-2-carboxylic acid], the results for the IC50 on EP4 and at EP2 were 14 nM and 87 nM, respectively.
Taken in the same sequence, the figures for `CCOc1cc(-c2ccc(C(C)n3ccc4c(F)ccc(C(=O)NC5CC6(C5)CC(C(=O)O)C6)c43)cc2)ccn1` (racemic) [Example 118, (Sa)-6-(1-((racemic)-1-(4-(2-ethoxypyridin-4-yl)phenyl)-ethyl)-4-fluoro-1H-indole-7-carboxamido)spiro[3.3]heptane-2-carboxylic acid] were 2.6 nM and 31 nM.
Taken in the same sequence, the figures for `COc1ccc(-c2ccc(C(C)n3ccc4c(F)ccc(C(=O)NC5CC6(C5)CC(C(=O)O)C6)c43)cc2)cn1` (racemic) [Example 119, (Sa)-6-(4-fluoro-1-((racemic)-1-(4-(6-methoxypyridin-3-yl)phenyl)-ethyl)-1H-indole-7-carboxamido)spiro[3.3]heptane-2-carboxylic acid] were 3.8 nM and 59 nM.
Taken in the same sequence, the figures for `COc1ncc(-c2ccc(C(C)n3ccc4c(F)ccc(C(=O)NC5CC6(C5)CC(C(=O)O)C6)c43)cc2)cc1Cl` (racemic) [Example 120, (Sa)-6-(1-((racemic)-1-(4-(5-chloro-6-methoxypyridin-3-yl)phenyl)-ethyl)-4-fluoro-1H-indole-7-carboxamido)spiro[3.3]heptane-2-carboxylic acid] were 11 nM and less than 25 nM.
In the case of `COc1cccc(-c2ccc(C(C)n3ncc4c(Cl)ccc(C(=O)NC5CC6(C5)CC(C(=O)O)C6)c43)cc2)c1` (racemic) [Example 122, (Sa)-6-(4-chloro-1-((racemic)-1-(3′-methoxy-[1,1′-biphenyl]-4-yl)-ethyl)-1H-indazole-7-carboxamido)spiro[3.3]heptane-2-carboxylic acid], the half-maximal inhibitory concentration (IC50) on EP4 is 4.7 nM; against EP2 it was less than 25 nM.
For the compound `COc1cc(C#N)cc(-c2ccc(C(C)n3ncc4c(Cl)ccc(C(=O)NC5CC6(C5)CC(C(=O)O)C6)c43)cc2)c1` (racemic) [Example 123, (Sa)-6-(4-chloro-1-((racemic)-1-(3′-cyano-5′-methoxy-[1,1′-biphenyl]-4-yl)-ethyl)-1H-indazole-7-carboxamido)spiro[3.3]heptane-2-carboxylic acid], the half-maximal inhibitory concentration (IC50) on EP4 is 12 nM; at EP2, 60 nM.
As for `CCOc1cc(-c2ccc(C(C)n3ncc4c(Cl)ccc(C(=O)NC5CC6(C5)CC(C(=O)O)C6)c43)cc2)ccn1` (racemic) [Example 124, (Sa)-6-(4-chloro-1-((racemic)-1-(4-(2-ethoxypyridin-4-yl)phenyl)-ethyl)-1H-indazole-7-carboxamido)spiro[3.3]heptane-2-carboxylic acid], the IC50 on EP4 was 3.9 nM; at EP2, less than 25 nM.
For the compound `CCOc1cccc(-c2ccc(C(C)n3ncc4c(Cl)ccc(C(=O)NC5CC6(C5)CC(C(=O)O)C6)c43)cc2)n1` (racemic) [Example 134, (Sa)-6-(4-chloro-1-((racemic)-1-(4-(6-ethoxypyridin-2-yl)phenyl)-ethyl)-1H-indazole-7-carboxamido)spiro[3.3]heptane-2-carboxylic acid], the IC50 on EP4 was 1.3 nM; against EP2, less than 25 nM.
Turning to `CC(c1ccc(-c2ccccc2)cc1)n1ncc2cc(Cl)cc(C(=O)NC3CC4(C3)CC(C(=O)O)C4)c21` (racemic) [Example 173, (Sa)-6-(1-((racemic)1-([1,1′-Biphenyl]-4-yl)ethyl)-5-chloro-1H-indazole-7-carboxamido)spiro[3.3]heptane-2-carboxylic acid], the IC50 is 7.2 nM at EP4 and less than 25 nM on EP2.
In the case of `O=C(NC1CC2(C1)CC(C(=O)O)C2)c1ccc(Cl)c2ccn(Cc3ccc(-c4ccncc4)cc3)c12` (centres unmarked) [Example 67, (Sa)-6-(4-Chloro-1-(4-(pyridin-4-yl)benzyl)-1H-indole-7-carboxamido)spiro[3.3]heptane-2-carboxylic acid], the IC50 on EP4 turned out to be 6.6 nM.
The same measure, in the same setting: under `N#Cc1ccc(-c2ccc(Cn3ncc4c(Cl)ccc(C(=O)NC5CC6(CC(CC(=O)O)C6)C5)c43)cc2)cc1` (centres unmarked) [Example 145, (Ra)-2-(6-(4-Chloro-1-((4′-cyano-[1,1′-biphenyl]-4-yl)methyl)-1H-indazole-7-carboxamido)spiro[3.3]heptan-2-yl)acetic acid] stands less than 1 nM.
